Data: patent US9453053B2, “Short peptides for enhancing muscle function” (UNIVERSITAT HEIDELBERG, priority 2010, dated 2016)
Entries after “also recorded” stand apart in the source; their conditions may differ. Ends that are not written are not given here.

What was measured:
[1] = tested on: isolated rat ventricular cardiomyocytes; type: cell-based; conditions: for effect on calcium transient amplitudes: FIG. 25, field-stimulated (1 Hz) isolated rat ventricular cardiomyocytes; for increase in the calcium transient amplitude over control cells, functional equivalence compared to S100A1ct6/11: FIG. 26, 2 Hz, peptides added 30 min before assessment
[2] = tested on: permeabilized EDL murine skeletal muscle fibers; assay: Isometric twitch force in permeabilized skeletal muscle fibers; type: cell-based, mouse
Method: Muscle Fiber Preparation and Experimental Solutions. All of the animals were handled according to the guidelines of the animal care committee of the University of Heidelberg. Male BALB/c mice (3-6-months-old) were sacrificed by an overdose of carbon dioxide, and muscle fiber preparation was carried out as previously described (Fink R. H. and Stephenson D. G., 1987, Pflugers Arch. Eur. J. Physiol. 409:374-380; Makabe M. et al., 1996, Pflugers Arch. Eur. J. Physiol. 432: 717-726). Either EDL (M. ext. dig. longum) or Soleus was isolated, and a small fiber bundle containing two to four single fibers (between 80 and 150 μm in diameter and 3-4-mm-long) was dissected in paraffin oil. […] The free ion concentrations were calculated with the computer program REACT (version 2.0) from G. L. Smith (Glasgow, Scotland). […]
It was shown that both, the full-length S100A1 protein as well as the C-terminal fragment, has a potency to enhance isometric twitch force in permeabilized murine skeletal muscle fibers (FIG. 7). […] Maximum force was measured in the high activating solution at pCa 4.28 and 5 mM caffeine. […] Several control transients were recorded before the fiber was exposed to the S100A1 protein or the S100A1 peptide mixture (N/H/C) or the C-terminal 20-mer alone, and the experiment was repeated as outlined above. […]

[3] = tested on: adult intact cardiomyocytes or skeletal muscle fibers; assay: Calcium homeostasis in adult intact cardiomyocytes or skeletal muscle fibers; type: cell-based; conditions: adult intact (non-permeabilized) cardiomyocytes or skeletal muscle fibers
RyR2 = molecular target: T1, RyR2 (Oryctolagus cuniculus, UniProt P30957); assay: Ca2+-spark frequency in permeabilized cardiomyocytes; type: cell-based, rabbit
T1 construct: Adult ventricular rabbit cardiomyocytes were isolated from four different animals; endogenous in cells; host or cells: adult ventricular rabbit cardiomyocytes, permeabilized with beta-escin
Method: Adult ventricular rabbit cardiomyocytes were isolated from four different animals as previously described (Loughrey C. M. et al., 2004, J. Physiol. 556:919-934) and permeabilized using β-escin (0.1 mg/ml). The permeabilized cells were incubated for 1 minute with rhodamine-labeled human S100A1 protein (0.1 μM) or FITC-labeled S100A1 C-terminal 20-mer peptide (0.1 μM) fused to a hydrophilic element (i.e. amino acids 75 to 94 of human S100A1 fused to the hydrophilic element D-K-D-D-P-P (SEQ ID NO: 17)). Cells were monitored using a Bio-Rad 2000 laser scanning confocal microscope (LSCM). A striated staining pattern can be observed that resembles the ryanodine staining pattern (FIG. 4).
Furthermore, Ca^2+-spark frequency has been assessed in the permeabilized cells treated with S100A1 protein or the S100A1 C-terminal 20-mer peptide fused to a hydrophilic element and it was shown that both, the full-length protein as well as the C-terminal fragment, decrease calcium spark frequency in permeabilized cardiomyocytes (FIGS. 5 and 6). […] Fluo-3 free acid (10 μM) present in the perfusing solution was excited at 488 nm (Kr-laser) and measured at >515 nm applying epifluorescence optics of an inverted microscope with a ×60-1.2 NA water-immersion objective lens. Fluorescence was acquired in line scan mode at 2 ms line^−1; pixel dimension was 0.3 μm (512 pixels scan^−1; zoom=1.4). […]

T1 sequence (P30957 whole entry): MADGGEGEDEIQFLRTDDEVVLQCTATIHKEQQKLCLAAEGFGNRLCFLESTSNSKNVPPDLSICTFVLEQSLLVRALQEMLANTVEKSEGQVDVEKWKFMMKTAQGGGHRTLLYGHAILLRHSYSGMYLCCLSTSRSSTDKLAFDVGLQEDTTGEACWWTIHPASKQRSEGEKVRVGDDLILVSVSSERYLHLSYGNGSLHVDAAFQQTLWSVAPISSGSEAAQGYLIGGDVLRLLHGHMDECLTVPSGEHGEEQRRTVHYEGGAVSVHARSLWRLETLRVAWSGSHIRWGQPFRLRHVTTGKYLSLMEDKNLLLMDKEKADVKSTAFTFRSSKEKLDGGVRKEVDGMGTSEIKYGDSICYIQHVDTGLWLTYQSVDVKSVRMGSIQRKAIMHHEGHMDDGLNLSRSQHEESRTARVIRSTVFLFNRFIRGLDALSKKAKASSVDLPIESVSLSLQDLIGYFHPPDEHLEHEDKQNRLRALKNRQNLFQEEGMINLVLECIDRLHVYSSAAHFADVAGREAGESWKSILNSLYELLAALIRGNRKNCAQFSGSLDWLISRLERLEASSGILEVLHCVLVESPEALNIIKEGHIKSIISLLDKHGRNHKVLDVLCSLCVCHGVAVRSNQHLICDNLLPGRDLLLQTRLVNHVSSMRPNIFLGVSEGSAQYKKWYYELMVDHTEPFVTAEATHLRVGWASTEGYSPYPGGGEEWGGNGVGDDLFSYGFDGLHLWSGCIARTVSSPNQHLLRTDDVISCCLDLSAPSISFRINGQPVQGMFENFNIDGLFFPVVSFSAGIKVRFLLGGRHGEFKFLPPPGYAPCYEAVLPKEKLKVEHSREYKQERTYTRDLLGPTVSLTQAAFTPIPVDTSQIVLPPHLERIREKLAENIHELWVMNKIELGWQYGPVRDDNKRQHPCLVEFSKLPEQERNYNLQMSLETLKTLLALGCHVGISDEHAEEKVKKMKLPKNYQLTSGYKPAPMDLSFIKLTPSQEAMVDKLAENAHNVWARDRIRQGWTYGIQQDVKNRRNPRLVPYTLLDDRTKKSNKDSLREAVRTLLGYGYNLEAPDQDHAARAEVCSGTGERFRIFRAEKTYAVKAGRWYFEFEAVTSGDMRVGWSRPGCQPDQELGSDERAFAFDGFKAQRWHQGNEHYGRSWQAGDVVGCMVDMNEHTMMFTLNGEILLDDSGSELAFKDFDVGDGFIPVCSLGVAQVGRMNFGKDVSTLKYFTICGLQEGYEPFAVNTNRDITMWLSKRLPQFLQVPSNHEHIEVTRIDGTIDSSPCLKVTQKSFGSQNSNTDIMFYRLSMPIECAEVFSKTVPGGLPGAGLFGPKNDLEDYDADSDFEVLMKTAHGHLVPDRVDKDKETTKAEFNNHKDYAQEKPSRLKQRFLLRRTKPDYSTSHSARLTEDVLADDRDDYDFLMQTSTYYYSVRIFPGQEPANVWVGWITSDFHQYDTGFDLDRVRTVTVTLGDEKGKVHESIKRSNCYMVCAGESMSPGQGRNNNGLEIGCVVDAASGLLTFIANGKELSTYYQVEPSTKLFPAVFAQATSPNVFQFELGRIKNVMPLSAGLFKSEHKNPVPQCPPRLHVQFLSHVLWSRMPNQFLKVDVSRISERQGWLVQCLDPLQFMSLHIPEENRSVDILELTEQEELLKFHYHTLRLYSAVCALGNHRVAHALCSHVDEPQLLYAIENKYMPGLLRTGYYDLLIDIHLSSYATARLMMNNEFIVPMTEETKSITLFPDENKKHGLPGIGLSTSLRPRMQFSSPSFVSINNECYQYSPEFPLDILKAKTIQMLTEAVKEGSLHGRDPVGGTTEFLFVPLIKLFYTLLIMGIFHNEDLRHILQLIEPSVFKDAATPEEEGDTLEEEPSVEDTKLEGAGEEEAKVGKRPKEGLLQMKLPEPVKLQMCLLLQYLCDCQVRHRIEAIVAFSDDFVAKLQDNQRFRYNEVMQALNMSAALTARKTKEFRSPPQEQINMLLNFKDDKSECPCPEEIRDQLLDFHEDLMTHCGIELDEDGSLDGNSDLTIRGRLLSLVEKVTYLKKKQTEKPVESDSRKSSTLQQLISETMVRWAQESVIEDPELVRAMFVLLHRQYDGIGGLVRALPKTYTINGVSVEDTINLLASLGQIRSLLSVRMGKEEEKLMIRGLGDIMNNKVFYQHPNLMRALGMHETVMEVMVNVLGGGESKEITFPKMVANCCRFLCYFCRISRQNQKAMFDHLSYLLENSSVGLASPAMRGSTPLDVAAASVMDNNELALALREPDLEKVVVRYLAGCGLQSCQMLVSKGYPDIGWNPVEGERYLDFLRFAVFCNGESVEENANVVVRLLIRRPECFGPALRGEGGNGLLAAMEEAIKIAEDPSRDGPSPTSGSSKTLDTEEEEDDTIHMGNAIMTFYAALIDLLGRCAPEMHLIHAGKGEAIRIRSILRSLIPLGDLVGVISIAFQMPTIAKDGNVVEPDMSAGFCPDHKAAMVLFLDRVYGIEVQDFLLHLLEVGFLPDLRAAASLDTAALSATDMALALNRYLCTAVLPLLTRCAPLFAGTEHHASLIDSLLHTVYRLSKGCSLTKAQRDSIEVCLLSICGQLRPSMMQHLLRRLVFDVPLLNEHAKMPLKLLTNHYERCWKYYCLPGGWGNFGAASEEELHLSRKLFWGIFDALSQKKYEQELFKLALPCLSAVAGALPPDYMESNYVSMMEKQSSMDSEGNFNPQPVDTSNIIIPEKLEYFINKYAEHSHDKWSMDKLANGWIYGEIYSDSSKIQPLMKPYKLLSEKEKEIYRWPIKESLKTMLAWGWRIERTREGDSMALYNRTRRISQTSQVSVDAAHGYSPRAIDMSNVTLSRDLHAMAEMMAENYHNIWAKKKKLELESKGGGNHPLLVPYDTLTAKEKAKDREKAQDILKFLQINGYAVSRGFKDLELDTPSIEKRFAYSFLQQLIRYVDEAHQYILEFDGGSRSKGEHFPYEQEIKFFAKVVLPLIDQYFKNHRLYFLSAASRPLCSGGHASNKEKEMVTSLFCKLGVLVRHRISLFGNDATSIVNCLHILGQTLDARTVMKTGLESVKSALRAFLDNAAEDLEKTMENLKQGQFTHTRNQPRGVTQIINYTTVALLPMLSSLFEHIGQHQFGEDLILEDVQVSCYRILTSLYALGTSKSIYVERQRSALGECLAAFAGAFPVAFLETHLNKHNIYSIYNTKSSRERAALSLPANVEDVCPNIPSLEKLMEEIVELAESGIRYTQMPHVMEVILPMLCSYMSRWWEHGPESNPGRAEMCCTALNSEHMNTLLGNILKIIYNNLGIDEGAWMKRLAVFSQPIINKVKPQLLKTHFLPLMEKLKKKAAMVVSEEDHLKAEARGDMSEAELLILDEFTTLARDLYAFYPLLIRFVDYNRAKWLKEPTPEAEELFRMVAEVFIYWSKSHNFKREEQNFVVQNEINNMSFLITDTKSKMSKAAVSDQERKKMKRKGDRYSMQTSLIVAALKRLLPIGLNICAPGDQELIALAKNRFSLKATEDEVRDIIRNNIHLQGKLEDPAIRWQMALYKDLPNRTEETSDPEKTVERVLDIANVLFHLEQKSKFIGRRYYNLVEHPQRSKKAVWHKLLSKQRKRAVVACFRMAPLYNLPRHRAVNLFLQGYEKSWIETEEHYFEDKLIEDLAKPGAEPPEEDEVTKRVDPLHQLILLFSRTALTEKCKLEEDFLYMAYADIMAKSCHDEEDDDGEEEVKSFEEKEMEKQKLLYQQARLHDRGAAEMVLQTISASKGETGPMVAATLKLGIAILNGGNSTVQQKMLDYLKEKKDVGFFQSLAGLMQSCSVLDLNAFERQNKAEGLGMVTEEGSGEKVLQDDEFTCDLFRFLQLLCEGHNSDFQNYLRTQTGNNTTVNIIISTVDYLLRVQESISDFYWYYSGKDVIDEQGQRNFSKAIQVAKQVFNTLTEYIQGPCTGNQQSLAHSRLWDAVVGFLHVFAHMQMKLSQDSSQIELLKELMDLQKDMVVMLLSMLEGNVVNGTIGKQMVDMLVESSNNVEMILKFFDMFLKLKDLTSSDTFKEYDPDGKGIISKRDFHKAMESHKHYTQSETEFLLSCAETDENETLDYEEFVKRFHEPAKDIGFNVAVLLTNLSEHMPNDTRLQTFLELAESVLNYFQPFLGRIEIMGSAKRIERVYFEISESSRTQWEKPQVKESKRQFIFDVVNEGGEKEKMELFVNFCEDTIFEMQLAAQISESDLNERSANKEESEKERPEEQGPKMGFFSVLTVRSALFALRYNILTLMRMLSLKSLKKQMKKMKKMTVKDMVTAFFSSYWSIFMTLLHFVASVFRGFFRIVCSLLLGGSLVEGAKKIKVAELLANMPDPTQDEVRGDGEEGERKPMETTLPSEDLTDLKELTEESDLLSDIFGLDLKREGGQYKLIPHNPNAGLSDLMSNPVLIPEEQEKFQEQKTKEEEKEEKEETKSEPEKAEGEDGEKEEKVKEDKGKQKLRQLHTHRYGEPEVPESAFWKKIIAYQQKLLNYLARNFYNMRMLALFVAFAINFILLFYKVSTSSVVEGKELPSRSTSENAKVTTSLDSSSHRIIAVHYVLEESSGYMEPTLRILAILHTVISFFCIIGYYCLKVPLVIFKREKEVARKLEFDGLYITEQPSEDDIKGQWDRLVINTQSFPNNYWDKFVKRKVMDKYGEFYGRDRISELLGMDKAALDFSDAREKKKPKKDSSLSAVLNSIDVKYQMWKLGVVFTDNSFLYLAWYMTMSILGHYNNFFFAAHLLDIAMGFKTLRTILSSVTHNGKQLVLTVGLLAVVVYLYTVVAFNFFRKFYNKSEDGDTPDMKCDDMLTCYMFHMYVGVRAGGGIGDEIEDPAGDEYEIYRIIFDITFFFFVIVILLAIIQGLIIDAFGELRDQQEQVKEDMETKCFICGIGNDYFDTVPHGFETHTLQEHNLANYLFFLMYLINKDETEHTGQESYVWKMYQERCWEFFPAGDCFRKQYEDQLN

Substance | effect on calcium transient amplitudes [1] | increase in the calcium transient amplitude over control cells, functional equivalence compared to S100A1ct6/11 [1] | other results
D-K-D-D-P-P (DKDDPP; hydrophilic motif) [hydrophobic element, 6-mer hydrophilic motif tested alone as control, reference compound] | do not exhibit the inotropic effect | – | –
D-K-D-D-P-P-L-V-A-A-L-T-V-A (DKDDPPLVAALTVA) [N-78-85-C] | abolishes the inotropic effect | – | –
D-K-D-D-P-P-V-A-A-L-T-V-A (DKDDPPVAALTVA; Functional peptide (Fig. 26)) [79-85] | abolishes the inotropic effect | partial functional equivalence | –
D-K-D-D-P-P-V-L-V-A-A-L-T-V-A (DKDDPPVLVAALTVA; Functional peptide (Fig. 26)) [77-85] | abolishes the inotropic effect | partial functional equivalence | –
D-K-D-D-P-P-V-V-L-V-A-A-L (DKDDPPVVLVAAL; Functional peptide (Fig. 26)) [76-82] | – | partial functional equivalence | –
D-K-D-D-P-P-V-V-L-V-A-A-L-T (DKDDPPVVLVAALT; Functional peptide (Fig. 26)) [76-83] | – | partial functional equivalence | –
D-K-D-D-P-P-V-V-L-V-A-A-L-T-V (DKDDPPVVLVAALTV; Functional peptide (Fig. 26)) [76-84] | – | full functional equivalence | –
DKDDPPYVVLVAALTVA [S100A1ct6/11, D-K-D-D-P-P-Y-V-V-L-V-A-A-L-T-V-A (SEQ ID NO: 42)] | – | – | EC50 [1]: 87 ± 6 nM
S100A1 protein: native human S100A1 protein, 94 amino acids, SEQ ID NO: 38; recombinant, rhodamine-labeled for imaging | – | – | isometric twitch force [2]: enhances; also recorded: equivalent biological potency to enhance isometric force; calcium homeostasis [3]: does not alter; diastolic calcium spark frequency and RyR2 activity (RyR2): decreases
YVVLVAALTVACNNFFWENS (SEQ ID NO: 39) (YVVLVAALTVACNNFFWENS; amino acids 75 to 94 of human S100A1) [20-mer S100A1 C-terminal peptide, amino acids 75-94 of human S100A1, reference compound] | – | – | isometric twitch force [2]: enhances; also recorded: equivalent biological potency to enhance isometric force; calcium homeostasis [3]: does not alter; diastolic calcium spark frequency and RyR2 activity (RyR2): decreases
